Tested on: spinal cord transcriptome
Assay: RNA-Seq of spinal cord tissue from 2B/- and 2B/+ mice
Format: in vivo, mouse
Details: 2B-Veh vs 2B-RG3039

Nc1nc(N)c2c(OCC3CCN(Cc4c(Cl)cccc4Cl)CC3)cccc2n1 [RG3039]
log2(fold-change) Slc16a3: -0.7903
log2(fold-change) Slc16a9: -0.6931
log2(fold-change) Slc24a4: -0.7011
log2(fold-change) Slc25a34: -1.809
log2(fold-change) Slc38a5: 1.057
log2(fold-change) Slc43a2: -0.4622
log2(fold-change) Smim3: -1.398
log2(fold-change) Sox7: 0.9813
log2(fold-change) Sspo: -0.7538
log2(fold-change) Steap3: 0.5769
log2(fold-change) Sult1a1: -1.637
log2(fold-change) T2: -0.674
log2(fold-change) Thbd: 0.6475
log2(fold-change) Tjap1: -0.5932
log2(fold-change) Tmem52: -2.209
log2(fold-change) Tmem82: -2.075
log2(fold-change) Tnc: 1.175
log2(fold-change) Tnfrsf11b: 0.7466
log2(fold-change) Tnfsf10: 1.316
log2(fold-change) Top2a: 0.5734
log2(fold-change) Trim17: -0.4978
log2(fold-change) Trim63: -1.544
log2(fold-change) Txnip: -1.514
log2(fold-change) Ube2c: 0.4464
log2(fold-change) Uhrf1: 0.8234
log2(fold-change) Vegfc: 0.6909
log2(fold-change) Wfdc18: -1.041
log2(fold-change) Wnt7a: 1.48
log2(fold-change) Zbtb16: -1.136
log2(fold-change) Zfand4: -0.6603
log2(fold-change) (gene 1110032A03Rik): -0.2821
log2(fold-change) (gene Acsbg1): -0.2673
log2(fold-change) (gene Adam15): -0.3484
log2(fold-change) (gene Adi1): -0.4121
log2(fold-change) (gene Adra1b): 0.2729
log2(fold-change) (gene Aff1): -0.2665
log2(fold-change) (gene Ak3): -0.3763
log2(fold-change) (gene Aldh1l1): -0.3854
log2(fold-change) (gene Aldoc): -0.3499
log2(fold-change) (gene Amz1): 0.2752
log2(fold-change) (gene Ap5z1): -0.356
log2(fold-change) (gene Aqp11): -0.2575
log2(fold-change) (gene Arsk): -0.2986
log2(fold-change) (gene B3gnt9): -0.2654
log2(fold-change) (gene Bahd1): 0.2771
log2(fold-change) (gene Boc): -0.2865
log2(fold-change) (gene Calr): 0.1683
log2(fold-change) (gene Ccdc41os1): -0.2491
log2(fold-change) (gene Ccdc117): 0.2458
log2(fold-change) (gene Ccnyl1): 0.3378
log2(fold-change) (gene Cdc25a): 0.2456
log2(fold-change) (gene Clmp): 0.2336
log2(fold-change) (gene Cntfr): -0.3422
log2(fold-change) (gene Col9a3): 0.1971
log2(fold-change) (gene Cpt1c): -0.278
log2(fold-change) (gene Crabp1): 0.2782
log2(fold-change) (gene Cryz): -0.1892
log2(fold-change) (gene Daam2): -0.2024
log2(fold-change) (gene Darc): 0.1786
log2(fold-change) (gene Decr1): -0.3016
log2(fold-change) (gene Dnm2): -0.2166
log2(fold-change) (gene Efnb3): -0.3581
log2(fold-change) (gene Elmo2): 0.364
log2(fold-change) (gene Eltd1): -0.2627
log2(fold-change) (gene Fkbp10): 0.3165
log2(fold-change) (gene Fmnl3): 0.3298
log2(fold-change) (gene Foxo3): -0.2832
log2(fold-change) (gene Gpt2): -0.2642
log2(fold-change) (gene Gstt1): -0.358
log2(fold-change) (gene Hapln2): -0.2887
log2(fold-change) (gene Hmgcr): 0.3374
log2(fold-change) (gene Hopx): 0.2486
log2(fold-change) (gene Hsdl2): -0.1941
log2(fold-change) (gene Itfg3): -0.4076
log2(fold-change) (gene Ivd): -0.3584
log2(fold-change) (gene Kctd3): -0.3771
log2(fold-change) (gene Kctd15): 0.2608
log2(fold-change) (gene Kpna2): 0.269
log2(fold-change) (gene Lpcat1): 0.2395
log2(fold-change) (gene Lrrc1): -0.4303
log2(fold-change) (gene Lxn): 0.285
log2(fold-change) (gene Maged2): 0.2097
log2(fold-change) (gene Megf9): -0.283
log2(fold-change) (gene Megf11): 0.3115
log2(fold-change) (gene Mmp15): 0.2397
log2(fold-change) (gene Msi1): 0.3899
log2(fold-change) (gene Mterfd3): -0.3526
log2(fold-change) (gene Ngef): 0.3246
log2(fold-change) (gene Nid1): 0.3048
log2(fold-change) (gene Npl): 0.2963
log2(fold-change) (gene Nr2f1): 0.3426
log2(fold-change) (gene Nrbp2): -0.2827
log2(fold-change) (gene Nrep): 0.3402

Source: publication PMC5612656, “In vitro and in vivo effects of 2,4 diaminoquinazoline inhibitors of the decapping scavenger enzyme DcpS: Context-specific modulation of SMN transcript levels” (PLoS ONE, 2017)
